Measurements as given in patent US20070128217A1 (priority 2003, published 2007).

Assays:
[1] = tested on: control sera (pooled serum of ten healthy LUMC hospital workers; commercial negative donor pooled serum from the Dutch bloodbank); assay type: binding, human; set-up: Binding of Control serum LUMC to linear peptides / Binding of Control serum Blood-bank to linear peptides / Binding of Control serum LUMC to looped peptides / Binding of Control Serum Blood-Bank to Looped peptides / Binding of Control serum LUMC to linear peptides of the protein M of SARS-CoV Urbani / Binding of Control serum Blood-bank to linear peptides of the protein M of SARS-CoV Urbani / Binding of Control serum LUMC to looped peptides of the protein M of SARS-CoV Urbani / Binding of Control Serum Blood-Bank to Looped peptides of the protein M of SARS-CoV Urbani: unit not given here
[2] = tested on: rabbit serum obtained by immunizing a rabbit with the SARS-CoV strain Frankfurt 1; assay type: binding; set-up: Binding of a rabbit serum to linear peptides / Binding of a rabbit serum to looped peptides / Rabbit serum linear peptides / Rabbit serum looped peptides / Binding of a rabbit serum to linear peptides of protein N of SARS-CoV Urbani (Rabbit serum linear peptides) / Binding of a rabbit serum to looped/cyclic peptides of protein N of SARS-CoV Urbani (Rabbit serum looped peptides): unit not given here
[3] = tested on: antibodies in sera from SARS patients (sera 1a, 1b, 2, 6, 37, 62, London, SARS-yellow, SARS-green); assay type: binding, human; set-up: Binding of serum 6 to linear peptides of protein X1 of SARS-CoV Urbani / Binding of serum 37 to linear peptides of protein X1 of SARS-CoV Urbani / Binding of serum 6 to looped/cyclic peptide (PEPSCAN-ELISA) / Binding of serum 37 to looped/cyclic peptide (PEPSCAN-ELISA) / Binding of serum 37 to looped/cyclic peptides of protein X1 of SARS-CoV Urbani / Binding of serum 6 to linear peptides of protein X2 / Binding of serum 37 to linear peptides of protein X2 / Binding of serum 37 to looped/cyclic peptides of protein X2 of SARS-CoV Urbani / Binding of serum 6 to linear peptides of protein M of SARS-CoV Urbani / Binding of serum 37 to linear peptides of protein M of SARS-CoV Urbani / Binding of serum 6 to looped/cyclic peptides of protein M of SARS-CoV Urbani / Binding of serum 37 to looped/cyclic peptides of protein M of SARS-CoV Urbani / Binding of serum 6 to linear peptides of protein X3 of SARS-CoV Urbani / Binding of serum 37 to linear peptides of protein X3 of SARS-CoV Urbani / Binding of serum 37 to looped/cyclic peptides of protein X3 of SARS-CoV Urbani / Binding of serum 6 to linear peptides of protein X4 of SARS-CoV Urbani / Binding of serum 37 to linear peptides of protein X4 of SARS-CoV Urbani / Binding of serum 37 to looped/cyclic peptides of protein X4 of SARS-CoV Urbani / Binding of serum 6 to linear peptides of protein X5 of SARS-CoV Urbani / Binding of serum 37 to linear peptides of protein X5 of SARS-CoV Urbani / Binding of serum 37 to looped/cyclic peptides of protein X5 of SARS-CoV Urbani / Binding of serum 6 to linear peptides of protein N of SARS-CoV Urbani / Binding of serum 37 to linear peptides of protein N of SARS-CoV Urbani / Binding of serum 6 to linear peptide (PEPSCAN-ELISA) / Binding of serum 1a to looped/cyclic peptides of protein N of SARS-CoV Urbani / Binding of serum 1b to looped/cyclic peptides of protein N of SARS-CoV Urbani / Binding of serum 2 to looped/cyclic peptides of protein N of SARS-CoV Urbani / Binding of serum 6 to looped/cyclic peptides of protein N of SARS-CoV Urbani / Binding of serum 37 to looped/cyclic peptides of protein N of SARS-CoV Urbani / Binding of serum 62 to looped/cyclic peptides of protein N of SARS-CoV Urbani / Binding of serum London to looped/cyclic peptides of protein N of SARS-CoV Urbani / Binding of serum SARS-green to looped/cyclic peptides of protein N of SARS-CoV Urbani: unit not given here

| Sequence | Binding of Control Serum Blood-Bank to Looped peptides of the protein M of SARS-CoV Urbani [1] | Binding of Control serum Blood-bank to linear peptides of the protein M of SARS-CoV Urbani [1] | Binding of Control serum LUMC to linear peptides of the protein M of SARS-CoV Urbani [1] | Binding of Control serum LUMC to looped peptides of the protein M of SARS-CoV Urbani [1] | Rabbit serum linear peptides [2] | Rabbit serum looped peptides [2] | Binding of serum 1a to linear peptides of protein M of SARS-CoV Urbani [3] | Binding of serum 1a to looped/cyclic peptides of protein M of SARS-CoV Urbani [3] | Binding of serum 1b to linear peptides of protein M of SARS-CoV Urbani [3] | Binding of serum 1b to looped/cyclic peptides of protein M of SARS-CoV Urbani [3] | Binding of serum 2 to linear peptides of protein M of SARS-CoV Urbani [3] | Binding of serum 2 to looped/cyclic peptides of protein M of SARS-CoV Urbani [3] | Binding of serum 6 to linear peptides of protein M of SARS-CoV Urbani [3] | Binding of serum 6 to looped/cyclic peptides of protein M of SARS-CoV Urbani [3] | Binding of serum 37 to linear peptides of protein M of SARS-CoV Urbani [3] | Binding of serum 37 to looped/cyclic peptides of protein M of SARS-CoV Urbani [3] | Binding of serum 62 to linear peptides of protein M of SARS-CoV Urbani [3] | Binding of serum 62 to looped/cyclic peptides of protein M of SARS-CoV Urbani [3] | Binding of serum London to linear peptides of protein M of SARS-CoV Urbani [3] | Binding of serum London to looped/cyclic peptides of protein M of SARS-CoV Urbani [3] | other results |
| --- | --- | --- | --- | --- | --- | --- | --- | --- | --- | --- | --- | --- | --- | --- | --- | --- | --- | --- | --- | --- | --- |
| RRLLACLCKHKKVST |  |  |  |  |  |  |  |  |  |  |  |  |  |  |  |  |  |  |  |  | Binding of Control Serum Blood-Bank to Looped peptides [1]: 0.2; Binding of Control serum Blood-bank to linear peptides [1]: 0.9; Binding of Control serum LUMC to linear peptides [1]: 0.7; Binding of Control serum LUMC to looped peptides [1]: 0.3; Binding of a rabbit serum to linear peptides [2]: 0.6; Binding of a rabbit serum to looped peptides [2]: 0.3; Binding of serum 1a to looped/cyclic peptides of protein X2 of SARS-CoV Urbani [3]: 0.2; Binding of serum 1b to looped/cyclic peptides of protein X2 of SARS-CoV Urbani [3]: 0.1; Binding of serum 2 to looped/cyclic peptides of protein X2 of SARS-CoV Urbani [3]: 0.1; Binding of serum 6 to looped/cyclic peptides of protein X2 of SARS-CoV Urbani [3]: 0.2; Binding of serum 37 to looped/cyclic peptides of protein X2 of SARS-CoV Urbani [3]: 0.2; Binding of serum 62 to looped/cyclic peptides of protein X2 of SARS-CoV Urbani [3]: 0.4; Binding of serum London to looped/cyclic peptides of protein X2 of SARS-CoV Urbani [3]: 0.2; Binding of serum SARS-green to looped/cyclic peptides of protein X2 of SARS-CoV Urbani [3]: 0.2; Binding of serum SARS-yellow to looped/cyclic peptides of protein X2 of SARS-CoV Urbani [3]: 0.2; Recognition of the peptide by sera of SARS-CoV infected individuals, and form (linear, looped/cyclic) in which it is recognized [3]: recognized in linear form |
| RRRLLACLCKHKKVS |  |  |  |  |  |  |  |  |  |  |  |  |  |  |  |  |  |  |  |  | Binding of Control Serum Blood-Bank to Looped peptides [1]: 0.3; Binding of Control serum Blood-bank to linear peptides [1]: 0.7; Binding of Control serum LUMC to linear peptides [1]: 0.6; Binding of Control serum LUMC to looped peptides [1]: 0.2; Binding of a rabbit serum to linear peptides [2]: 0.5; Binding of a rabbit serum to looped peptides [2]: 0.2; Binding of serum 1a to looped/cyclic peptides of protein X2 of SARS-CoV Urbani [3]: 0.2; Binding of serum 1b to looped/cyclic peptides of protein X2 of SARS-CoV Urbani [3]: 0.1; Binding of serum 2 to looped/cyclic peptides of protein X2 of SARS-CoV Urbani [3]: 0.0; Binding of serum 6 to looped/cyclic peptides of protein X2 of SARS-CoV Urbani [3]: 0.1; Binding of serum 37 to looped/cyclic peptides of protein X2 of SARS-CoV Urbani [3]: 0.2; Binding of serum 62 to looped/cyclic peptides of protein X2 of SARS-CoV Urbani [3]: 0.3; Binding of serum London to looped/cyclic peptides of protein X2 of SARS-CoV Urbani [3]: 0.1; Binding of serum SARS-green to looped/cyclic peptides of protein X2 of SARS-CoV Urbani [3]: 0.1; Binding of serum SARS-yellow to looped/cyclic peptides of protein X2 of SARS-CoV Urbani [3]: 0.1; Recognition of the peptide by sera of SARS-CoV infected individuals, and form (linear, looped/cyclic) in which it is recognized [3]: recognized in linear form |
| RYRIGNYKLNTDHAG | 0.7 | 0.7 | 0.5 | 0.7 | 0.1 | 0.2 | 0.7 | 0.7 | 0.5 | 0.6 | 0.4 | 0.6 | 0.2 | 0.9 | 0.6 | 0.6 | 0.5 | 0.6 | 0.5 | 0.4 | Binding of serum SARS-green to linear peptides of protein M of SARS-CoV Urbani [3]: 0.4; Binding of serum SARS-green to looped/cyclic peptides of protein M of SARS-CoV Urbani [3]: 0.3; Binding of serum SARS-yellow to linear peptides of protein M of SARS-CoV Urbani [3]: 0.2; Binding of serum SARS-yellow to looped/cyclic peptides of protein M of SARS-CoV Urbani [3]: 0.8 |
| SELVIGAVIIRGHLR | 0.6 | 0.8 | 0.9 | 0.6 | 0.2 | 0.2 | 0.7 | 0.8 | 0.6 | 0.7 | 0.6 | 0.8 | 0.7 | 0.6 | 0.5 | 0.8 | 0.4 | 0.8 | 0.4 | 0.2 | Binding of serum SARS-green to linear peptides of protein M of SARS-CoV Urbani [3]: 0.5; Binding of serum SARS-green to looped/cyclic peptides of protein M of SARS-CoV Urbani [3]: 0.3; Binding of serum SARS-yellow to linear peptides of protein M of SARS-CoV Urbani [3]: 0.3; Binding of serum SARS-yellow to looped/cyclic peptides of protein M of SARS-CoV Urbani [3]: 0.9 |
| SFNPETNILLNVPLR | 1.0 | 0.7 | 0.4 | 1.0 | 0.5 | 0.4 | 0.7 | 0.8 | 0.4 | 0.7 | 0.5 | 0.9 | 0.3 | 0.8 | 0.7 | 0.7 | 0.7 | 0.8 | 0.3 | 0.3 | Binding of serum SARS-green to linear peptides of protein M of SARS-CoV Urbani [3]: 0.3; Binding of serum SARS-green to looped/cyclic peptides of protein M of SARS-CoV Urbani [3]: 0.3; Binding of serum SARS-yellow to linear peptides of protein M of SARS-CoV Urbani [3]: 0.1; Binding of serum SARS-yellow to looped/cyclic peptides of protein M of SARS-CoV Urbani [3]: 1.0 |
